Values quoted from earlier work as cited in paper PMC8954523 (Pharmaceutics, 2022).
In brackets after ≈: the same amount, converted by molar mass.

Key:
[1] = 298.15 K; cited from earlier work
[2] = ref 31; cited from earlier work

Structure (SMILES)	aqueous solubility [1]	log DCoct/w [2]
CNC(=O)c1ccc(N2C(=S)N(c3ccc(C#N)c(C(F)(F)F)c3)C(=O)C2(C)C)cc1F [enzalutamide]	3.92 µM (≈ 1.82 µg/mL)	4.02
CNC(=O)c1ccc(N2C(=S)N(c3cnc(C#N)c(C(F)(F)F)c3)C(=O)C23CCC3)cc1F [apalutamide]	7.78 µM (≈ 3.71 µg/mL)	3.90
